Columns and labels:
[1] = anion of ionic liquid; cited from earlier work
[2] = test system: intestinal villi of Wistar rats; test: In vivo local delivery of antibody-CGLY via intrajejunal administration; settings: rat, 1 mg mL^−1 FITC-IgG in 50% v/v CGLY2:1, 2 h
Protocol: Rats receiving equivalent saline injection without FITC-IgG were used as the negative control group. After 2 h, the rats were sacrificed and jejunal tissues were harvested and preserved using Swiss-rolling technique^[14]. […] The tissues were then frozen at −80° C. in the presence of optimum cutting temperature (OCT) compound and tissue sections were cut into 25 m thickness. was visualized using a slide scanner microscope (ZEISS Axio Scan.Z1) and the images processed using Zen™ (Blue edition) software.

[3] = cation:anion 1:2
Excerpt: IL selection. A library of ILs was designed and synthesized to assess siRNA delivery into skin. Cholinium was used as the cation in all ILs due to its biocompatibility. Several different anions were used to synthesize ILs (FIGS. 24A-24E). […] Other anions were chosen for several reasons. First, anions containing shorter linear carbon chains were chosen in contrast to geranic acid to assess the impact of the chain length on siRNA stability and delivery. Anions with aromatic groups were chosen since they might interact with the stacked RNA base pairs via electrostatic, hydrophobic, and polar interactions. All ILs were prepared at a stoichiometric ratio of 1:2 (cation:anion) and were assessed for stability and siRNA delivery. […] In addition, since both interleukin and ILs have been denoted as “IL,” for the purpose of clarity, all interleukins are referred by a numerical value throughout the manuscript.
(§1) Skin-penetrating IL-RNA complexes. The cholinium-based IL library was synthesized as described previously (26). Briefly, the cation, choline bicarbonate, and various anions were mixed at a 1:2 ratio to prepare ILs following salt metathesis reaction. […] The resulting IL solution was dried using a rotary evaporator at 20 mbar at 60° C. for 2 hours. The residual water was removed in a vacuum oven at 60° C. for 48 hours. The ILs that were viscous at RT were characterized via NMR with dimethyl sulfoxide (DMSO)-d6 on an Agilent DD2 600-MHz spectrometer (Supplementary Materials and Methods). ILs were mixed with RNA (100 μM) at a volumetric ratio of 1:1 and incubated for 30 min at RT. The RNA-IL solutions (1 ml) were dialyzed against 10 mM sodium phosphate buffer for 72 hours using Dialysis Cassettes (10,000 molecular weight cutoff, Invitrogen). The concentration of RNA was confirmed and normalized using a NanoDrop instrument (Thermo Fisher Scientific). The stability of the RNA in the IL solution was determined using CD and gel electrophoresis.

siRNA = settings: IL 50% (v/v), 30 min incubation, dialysis 72 h
Protocol: as §1
RNA concentrations were normalized in 10 mM sodium phosphate buffer and incubated for 30 mins at RT to ensure reduction and equilibrium, and then loaded into quartz cuvettes. Near-UV spectra were recorded from 200 nm to 310 nm at 20° C. by averaging 5 scans at 0.1 nm intervals for each sample. Spectrum Manager 2 was used to subtract the baseline and the spectra were plotted as molar ellipticity, [0] (deg.cm2.dmol-1).

porcine skin = test: Porcine skin penetration of Cy5-labeled siRNA in Franz diffusion cells (tape-stripping); format: in vitro ADME; settings: 24 h, IL 50% v/v or naked siRNA
Protocol: Skin penetration studies. Skin penetration studies were performed using porcine skin in FDCs, as described previously (40). A total volume of 20 μl of Cy5-labeled RNA (50 μM) in IL solutions was applied to the porcine skin surface and was incubated at 40° C. for 24 hours under occlusive conditions with moderate stirring. The skin permeability of RNA was visualized and quantified using confocal microscopy and tape-stripping techniques, respectively.
Porcine skin penetration ex-vivo studies Porcine skin studies were carried out in Franz diffusion cells (FDC) with penetration area of 1.77 cm^2. The porcine skin was obtained from Lampire Biological Laboratories, Pipersville, PA, USA. Briefly skins were thawed, hairs were trimmed, and washed with phosphate buffer saline (PBS, pH 7.4). A 36 mm punch was used to cut out a disc of the skin and a scalpel was used to get rid of the connective tissues and subcutaneous fat layers. […] 1 mL PBS was added to the donor chamber and the conductivity was measured using a waveform generator (Agilent 33120) and voltmeter (Fluke 87 True RMS Multimeter) at a frequency of 100 Hz and amplitude, 100 mV. Only skin samples with a measured transepidermal conductivity of less than […] were used for further studies. […] Following incubation, the skin was removed from the cell, washed gently with PBS and were further analyzed using tape-stripping and confocal microscopy. […]

Row | Compound | pKa [1] | physical state at room temperature [3] | siRNA secondary structure (CD, band at 210 nm) (siRNA) | also measured
1 | CC(C)=CC(=O)O [3,3-dimethylacrylic acid] | 5.02 |  |  | 
2 | O=S(=O)(O)c1ccc(O)cc1 [4-hydroxybenzenesulfonic acid] | 9.11 |  |  | 
3 | O=C(O)c1cccc(-c2ccccc2)c1 [Bipheny1-3-carboxylic acid] | 4.14 |  |  | 
4 | C[N+](C)(C)CCO.O=C([O-])CO [CGLY2:1, choline-glycolate] |  |  |  | FITC-IgG fluorescence signal on intestinal villi vs no-CGLY2:1 control [2]: over 4.5 fold
5 | O=P(O)(O)Oc1ccccc1 [Phenylphosphoric acid] | 9.99 |  |  | 
6 | choline and biphenyl-3-carboxylic acid [CABA] |  | solidified or formed a gel | notable alteration in the a helix backbone | 
7 | choline and dimethylacrylic acid [CADA] |  | viscous liquid | notable alteration in the a helix backbone | 
8 | choline and geranic acid [CAGE, reference compound] |  | viscous liquid | notable alteration in the a helix backbone | siRNA delivered into the epidermis (porcine skin): About 0.20 nmol/cm2
9 | choline and phenylphosphoric acid [CAPP] |  | solidified or formed a gel |  | 
10 | choline and phenylpropanoic acid [CAPA] |  | viscous liquid | retained the secondary structure of siRNA | 

Source: US20240016735A1, “IONIC LIQUIDS FOR DRUG DELIVERY” (PRESIDENT AND FELLOWS OF HARVARD COLLEGE, priority 2019, published 2024)
